One experiment relates to 786-O-Hif-Luc cells (luciferase gene driven by multiple HIF responsive elements). The experiment is described as follows: Luciferase Assay. The experiment is classed as cell-based. The note with it: 24 h, 786-O-Hif-Luc cells, about 24 hours; read-out: Mean Luciferease EC50. The procedure: A pool of infected cells were then selected against 2 μg/mL of puromycin (P8833, Sigma) for 10 days followed by limited dilution to select single clones.
Each concentration was tested in triplicate. After about 24 hours, luciferase activity was determined using ONE-Glo Luciferase Assay Reagent (E6110, Promega) following the manufacturer's recommended procedure. EC50 were calculated by using Dotmatics software.
As to `Cc1cc(Oc2cc(F)cc(C#N)c2)c2c(c1S(C)(=O)=O)C(O)C(F)(F)C2` (centres unmarked) [Compound 213, 3-((2,2-Difluoro-1-hydroxy-6-methyl-7-(methylsulfonyl)-2,3-dihydro-1H-inden-4-yl)oxy)-5-fluorobenzonitrile], the concentration for a half-maximal effect (EC50) was 770 nM.

Take `O=S(=O)(c1ccc(Oc2ccc(F)c(F)c2)c2c1C(O)CC2)C(F)(F)F` (centres unmarked) [Compound 214, 4-(3,4-Difluorophenoxy)-7-((trifluoromethyl)sulfonyl)-2,3-dihydro-1H-inden-1-ol]: the EC50 was found to be 1270 nM.

For the molecule `N#Cc1cc(F)cc(Oc2ccc(S(=O)(=O)CCl)c3c2CC(F)(F)[C@H]3O)c1` [Compound 215, (S)-3-((7-((Chloromethyl)sulfonyl)-2,2-difluoro-1-hydroxy-2,3-dihydro-1H-inden-4-yl)oxy)-5-fluorobenzonitrile], the EC50 came to 22 nM. With `O=S(=O)(c1ccc(Oc2ccc(F)c(Cl)c2)c2c1C(O)CC2)C(F)(F)F` (centres unmarked) [Compound 218, 4-(3-Chloro-4-fluorophenoxy)-7-((trifluoromethyl)sulfonyl)-2,3-dihydro-1H-inden-1-ol], the concentration giving a half-maximal response (EC50) turned out to be 3500 nM. The same measure, in the same setting: for `N#Cc1cncc(Oc2ccc(S(=O)(=O)C(F)(F)F)c3c2CCC3O)c1` (centres unmarked) [Compound 220, 5-((1-Hydroxy-7-((trifluoromethyl)sulfonyl)-2,3-dihydro-1H-inden-4-yl)oxy)nicotinonitrile] the value was 2100 nM. The same measure, in the same setting: for `O=S(=O)(c1ccc(Oc2ccc(F)c(Cl)c2)c2c1[C@H](O)C(F)(F)C2)C(F)(F)F` [Compound 221, (S)-4-(3-Chloro-4-fluorophenoxy)-2,2-difluoro-7-((trifluoromethyl)sulfonyl)-2,3-dihydro-1H-inden-1-ol] the value was 26 nM. On the same count and under the same terms, for `CS(=O)(=O)c1ccc(Oc2cc(F)cc(C#N)c2)c2c1C(O)CC2` (centres unmarked) [Compound 222, 3-Fluoro-5-((1-hydroxy-7-(methylsulfonyl)-2,3-dihydro-1H-inden-4-yl)oxy)benzonitrile] the value was 1800 nM; for `Cn1cc(Oc2ccc(S(=O)(=O)C(F)(F)F)c3c2CC(F)(F)[C@H]3O)cn1` [Compound 224, (S)-2,2-Difluoro-4-((1-methyl-1H-pyrazol-4-yl)oxy)-7-((trifluoromethyl)sulfonyl)-2,3-dihydro-1H-inden-1-ol], 180 nM.

Still in this experiment, the particulars now being: 24 h, read-out: Mean Luciferease EC50.
In the case of `CS(=O)(=O)c1ccc(Oc2cc(F)cc(C#N)c2)c2c1C(O)C(F)(F)C2` (centres unmarked) [Compound 223, 3-((2,2-Difluoro-1-hydroxy-7-(methylsulfonyl)-2,3-dihydro-1H-inden-4-yl)oxy)-5-fluorobenzonitrile], the EC50 was determined as 63 nM. On the same count and under the same terms, for `CS(=O)(=O)c1ccc(Oc2cc(F)cc(C#N)c2)c2c1[C@@H](O)C(F)(F)C2` [Compound 226, (R)-3-((2,2-Difluoro-1-hydroxy-7-(methylsulfonyl)-2,3-dihydro-1H-inden-4-yl)oxy)-5-fluorobenzonitrile] the value was 3500 nM. The same measure, in the same setting: for `[2H]C([2H])([2H])S(=O)(=O)c1ccc(Oc2cc(F)cc(C#N)c2)c2c1[C@]([2H])(O)C(F)(F)C2` [Compound 229] the value was 24 nM. Still for that read-out and setting: for `CS(=O)(=O)c1ccc(Oc2cc(F)cc(C#N)c2)c2c1[C@H](O)[C@H](F)C2` [Compound 231, 3-Fluoro-5-(((1S,2R)-2-fluoro-1-hydroxy-7-(methylsulfonyl)-2,3-dihydro-1H-inden-4-yl)oxy)benzonitrile] the value was 36 nM; for `CS(=O)(=O)c1ccc(Oc2cc(F)cc(C#N)c2)c2c1C(O)C(F)C2` (centres unmarked) [Compound 232, 3-Fluoro-5-((2-fluoro-1-hydroxy-7-(methylsulfonyl)-2,3-dihydro-1H-inden-4-yl)oxy)benzonitrile], 35 nM. Take `N#Cc1cncc(Oc2ccc(S(=O)(=O)C(F)(F)F)c3c2CC(F)(F)[C@H]3O)c1` [Compound 235, (S)-5-((2,2-Difluoro-1-hydroxy-7-((trifluoromethyl)sulfonyl)-2,3-dihydro-1H-inden-4-yl)oxy)nicotinonitrile]: the half-maximal effective concentration (EC50) is 15 nM.

The values are drawn from patent US10597366B2, “Aryl ethers and uses thereof” (Peloton Therapeutics, Inc., priority 2013, dated 2020).
